Assay results as given in US20180086749A1, “INHIBITORS OF VIRUSES” (priority 2015, published 2018).
Values joined by “and” are separate entries in the source; they are usually repeats but may differ in a detail not shown here. Identical values can stand only once. Like-named read-outs stand apart in the source and are kept apart here.

Tests used:
[1] = test system: JEV; assay: Dose-response EC50, JEV; assay type: cell-based; details: Japanese encephalitis virus
[2] = test system: IFN α/β in HEK 293T culture supernatant; assay type: cell-based, human; details: 18 hours
[3] = test system: VEEV TrD (Trinidad donkey); assay type: cell-based, Venezuelan equine encephalitis virus
[4] = in vitro; details: African green monkey, CC50 μM (Vero76)
[5] = test system: VEEV TC-83; assay type: cell-based, Venezuelan equine encephalitis virus
[6] = test system: Vero 76 cells
[7] = test system: WNV/NY99; assay: Dose-response EC50, WNV; assay type: cell-based; details: West Nile virus
[8] = test system: HEK 293T cells; assay: ApoTox-Glo Triplex viability, cytotoxicity, apoptosis assay; details: four days exposure
[9] = test system: HSV-2; assay type: cell-based, Herpes simplex virus type-2
[10] = test system: innate immune response genes in HEK 293T cells; assay type: cell-based, human
[11] = test system: LCMV-ARM; assay type: cell-based, Lymphocytic Choriomeningitis Virus
[12] = test system: WNV/NY99; assay type: cell-based, West Nile virus
[13] = test system: VEEV V3526-luc; assay: microbe, parasite or virus in culture; assay type: cell-based, Venezuelan equine encephalitis virus; details: for EC50: Venezuelan equine encephalitis virus
[14] = test system: RSV Long; assay type: cell-based, Respiratory syncytial virus
[15] = test system: ZIKV/PRVABC59; assay: Dose-response EC50, ZIKV/PRVABC59; assay type: cell-based; details: Zika virus, Vero 76, Vero76, MOI 0.05
[16] = test system: ZIKV/MR766; assay: Dose-response EC50, ZIKV/MR766; assay type: cell-based; details: Zika virus, Vero 76, Vero76, MOI 0.05
[17] = test system: VEEV TrD; assay: microbe, parasite or virus in culture; assay type: cell-based; details: Venezuelan equine encephalitis virus
[18] = test system: CHIKV S27; assay type: cell-based, Chikungunya virus
[19] = test system: YFV 17D; assay type: cell-based, Yellow Fever virus
[20] = test system: WEEV; assay: cells; assay type: cell-based, West equine encephalitis virus California
[21] = test system: CHIKV (S27 strain); assay: CHIKV (S27 strain) CPE assay; assay type: cell-based, Chikungunya virus
[22] = test system: SARS-CoV; assay type: cell-based, Severe acute respiratory syndrome coronavirus
[23] = test system: JEV; assay type: cell-based, Japanese Encephalitis virus
[24] = test system: VEEV (TC83 strain); assay: microbe, parasite or virus in culture; assay type: cell-based, Venezuelan equine encephalitis virus
[25] = test system: alphaviruses; assay type: cell-based; details: 5 μM
[26] = test system: HEK-Blue IFN-α/β reporter cells; assay: HEK-Blue IFN-α/β cell reporter assay (SEAP); assay type: cell-based, human
[27] = test system: HIV-1; assay: HIV-1 viral infectivity assay (TZM-bl); assay type: cell-based; set-up: reduction in viral infectivity: dose or concentration left out as unconfirmed
[28] = test system: pVSV-luc; assay: microbe, parasite or virus in culture; assay type: cell-based, Vesicular stomatitis virus; details: for EC50: Vesicular stomatitis virus
[29] = test system: Influenza virus A (H1N1); assay type: cell-based
[30] = test system: Ebola virus-GFP; assay: microbe, parasite or virus in culture; assay type: cell-based, Zaire ebolavirus

CN(C(=O)Cc1sccc1F)c1nc2c(s1)CCCC2 [ML416, 2-(3-fluorothiophen-2-yl)-N-methyl-N-(4,5,6,7-tetrahydro-1,3-benzothiazol-2-yl)acetamide]
EC50 [1]: 1900 nM | EC50 ([1]; Vero 76, JEV, Vero76, MOI 0.05, Table 3, read-out: EC50): 1900 nM | IFN α/β in cell culture supernatant [2]: no measurable quantity of IFNs was detected | Log titer inhibition at 5 μM [3]: −4.768 Log | CC50 [4]: > 50 µM | Log titer inhibition at 5 μM [5]: −2.536 ± 0.018 Log | CC50 [6]: > 50000 nM | Selective Index 50 (SI50) [6]: 106.9 | concentration up to which no apparent cytotoxicity ([6]; African green monkey): up to 12.5 μM | cytotoxicity ([6]; African green monkey): > 40 µM | cytotoxicity in Vero 76 cells ([6]; African green monkey): > 50 µM | EC50 ([7]; Table 2): 2400 nM | EC50 ([7]; Vero 76, Vero76, MOI 0.01, Table 3): 2400 nM | concentration up to which no significant cytotoxicity and apoptosis [8]: up to 25 μM | Log titer inhibition at 5 μM [9]: 0.01 ± 0.43 Log | IFIH1 expression [10]: repressed | IFIT1 gene upregulation [10]: more than 10 fold | IFNB1 expression [10]: repressed | IRF7 gene upregulation [10]: more than 10 fold | MYD88 expression [10]: did not show any changes | OAS1 expression [10]: did not show any changes | OAS2 gene upregulation [10]: more than 10 fold | RIG-I gene upregulation [10]: more than 10 fold | Log titer inhibition at 5 μM [11]: −3.466 Log | Log reduction in progeny virus titers ([11]; 5 μM): greater than 3 Log | Log titer inhibition at 5 μM [12]: −2.05 ± −0.09 Log | Log titer reduction ([12]; 5 μM): ~2 Log | antiviral effect [13]: moderate effect | effect of DHO addition on antiviral activity [13]: did not affect the antiviral activity | EC50 [13]: 170 nM | EC50 ([13]; BHK, read-out: EC50 V3526-luc): 1120 nM | EC50 ([13]; HEK-293T, read-out: EC50 V3526-luc): 150 nM | EC50 ([13]; N2a, read-out: EC50 V3526-luc): > 50000 nM | EC50 ([13]; NIH3T3, read-out: EC50 V3526-luc): > 50000 nM | EC50 ([13]; Vero 76, read-out: EC50 V3526-luc): 170 nM | EC50 ([13]; in Mus musculus): > 50000 nM | EC50 ([13]; read-out: EC50 V3526-luc): 490 nM | EC50 ([13]; read-out: EC50 values range): 150 to 680 nM | Log titer inhibition at 5 μM [14]: −2.27 ± 0.1 Log | Log titer reduction ([14]; 5 μM): ~2 Log | EC50 [15]: 2200 nM | EC50 [16]: 1100 nM | EC50 [17]: 460 nM | reduction of CHIKV viral titer in vitro [18]: 4 log | Log titer inhibition at 5 μM ([18]; 5 μM): −4.024 Log | Log titer inhibition at 5 μM [19]: −2.32 Log | Log titer reduction ([19]; 5 μM): ~2 Log | EC50 [20]: 960 nM | EC50 ([21]; Chikungunya virus): 290 nM | inhibition of CHIKV-induced cytopathic effect ([21]; in words): in the nanomolar range | antiviral activity (blank spaces of Table 2) [22]: initial results have shown activity | Log titer inhibition at 5 μM [23]: −1.3 ± −0.43 Log | Log reduction ([23]; 5 μM): ~1.3 Log | EC50 ([24]; Venezuelan equine encephalitis virus): 350 nM | EC50 ([24]; read-out: VEEV (TC83 strain) CPE Assay Potency mean EC50): 1000 nM and 900 nM | Log reduction in progeny virus titers [25]: greater than 4 Log | IFN α/β in cell culture supernatant ([26]; HEK 293T supernatant on HEK-Blue IFN-α/β cells): no measurable quantity of IFNs was detected | SEAP activity ([26]; HEK-Blue IFN-α/β cells treated directly, FIG. 6): did not induce SEAP activity | inhibition at 10 µM ([27]; Human immunodeficiency virus 1, TZM-bl, read-out: inhibition at 10 μM): 94% | reduction in viral infectivity ([27]; TZM-bl reporter system, luciferase): 94% | antiviral effect [28]: moderate effect | EC50 [28]: 190 nM | EC50 ([28]; BHK, read-out: EC50 pVSV-Gp): 8260 nM | EC50 ([28]; HEK-293T, read-out: EC50 pVSV-Gp): 170 nM | EC50 ([28]; N2a, read-out: EC50 pVSV-Gp): > 50000 nM | EC50 ([28]; NIH3T3, read-out: EC50 pVSV-Gp): > 50000 nM | EC50 ([28]; in Mus musculus): > 50000 nM | EC50 ([28]; read-out: EC50 pVSV-Gp): 3820 nM | EC50 ([28]; read-out: EC50 values range): 150 to 680 nM | Log titer inhibition at 5 μM [29]: −3.03 Log | Log reduction in progeny virus titers ([29]; 5 μM): greater than 3 Log | EC50 [30]: 260 nM | EC50 ([30]; Zaire ebolavirus, HeLa): 300 nM
